Laboratory results from US11708348B2, “Protease inhibitors for treatment of coronavirus infections” (The Scripps Research Institute, priority 2021, dated 2023).

tested on: SARS-CoV-2 strain USA-WA1/2020; test: microbe, parasite or virus in culture; type: cell-based; conditions: Severe acute respiratory syndrome coronavirus 2, HeLa-ACE2, 24 h, HeLa-ACE2 cells, SARS-CoV-2 infection, 24 h; class symbols; read-out: EC50, uM (Hela)

Row | Structure (SMILES) | EC50 [µM]
1 | CC[C@@H](O)C(=O)N1[C@H](C(=O)N[C@@H](C[C@@H]2CCNC2=O)C(=O)COC(F)(F)F)C[C@@H]2CCCC[C@@H]21 [Compound 373, (2S,3aS,7aS)-1-((R)-2-hydroxybutanoyl)-N-((S)-3-oxo-1-((S)-2-oxopyrrolidin-3-yl)-4-(trifluoro-methoxy)butan-2-yl)octahydro-1H-indole-2-carboxamide] | 0.2 to 0.5
2 | CC(C)(NC(=O)C(=O)N[C@@H](CC1CCCCC1)C(=O)N[C@@H](C[C@@H]1CCNC1=O)C(=O)COC(F)(F)F)C(F)(F)F [Compound 212, N1-((S)-3-cyclohexyl-1-oxo-1-(((S)-3-oxo-1-((S)-2-oxopyrrolidin-3-yl)-4-(trifluoromethoxy)butan-2-yl)amino)propan-2-yl)-N2-(1,1,1-trifluoro-2-methylpropan-2-yl)oxalamide] | < 0.05
3 | CC(C)C[C@H](NC(=O)C(=O)Nc1ccccc1F)C(=O)N[C@@H](C[C@@H]1CCNC1=O)C(=O)COc1c(F)ccc(F)c1F [Compound 132, N1-(2-fluorophenyl)-N2-((S)-4-methyl-1-oxo-1-(((S)-3-oxo-1-((S)-2-oxopyrrolidin-3-yl)-4-(2,3,6-trifluorophenoxy)butan-2-yl)amino)pentan-2-yl)oxalamide] | 0.05 to 0.2
4 | CC(C)C[C@H](NC(=O)C(=O)NC1CCC1)C(=O)N[C@@H](C[C@@H]1CCNC1=O)C(=O)COC(F)(F)F [Compound 221, N1-cyclobutyl-N2-((S)-4-methyl-1-oxo-1-(((S)-3-oxo-1-((S)-2-oxopyrrolidin-3-yl)-4-(trifluoromethoxy)butan-2-yl)amino)pentan-2-yl)oxalamide] | < 0.05
5 | CC(C)(C)NC(=O)C(=O)NC(CC1CCOCC1)C(=O)N[C@@H](C[C@@H]1CCNC1=O)C(=O)COC(F)(F)F (stereo partly drawn) [Compound 181, N1-(tert-butyl)-N2-(l-oxo-1-(((S)-3-oxo-l-((S)-2-oxopyrrolidin-3-yl)-4-(trifluoromethoxy)butan-2-yl)amino)-3-(tetrahydro-2H-pyran-4-yl)propan-2-yl)oxalamide] | 0.2 to 0.5
6 | Cc1cc(C(=O)N[C@H](C(=O)N[C@@H](CC(C)C)C(=O)N[C@@H](C[C@@H]2CCNC2=O)C(=O)COc2c(F)c(F)cc(F)c2F)C(C)(C)C)no1 [Compound 118, N-((S)-3,3-dimethyl-1-(((S)-4-methyl-1-oxo-1-(((S)-3-oxo-1-((S)-2-oxopyrrolidin-3-yl)-4-(2,3,5,6-tetrafluorophenoxy)butan-2-yl)amino)pentan-2-yl)amino)-1-oxobutan-2-yl)-5-methylisoxazole-3-carboxamide] | 0.2 to 0.5
7 | COc1cccc(OC)c1NC(=O)C(=O)N[C@@H](CC(C)C)C(=O)N[C@@H](C[C@@H]1CCNC1=O)C(=O)COC(F)(F)F [Compound 164, N1-(2,6-dimethoxyphenyl)-N2-((S)-4-methyl-1-oxo-1-(((S)-3-oxo-1-((S)-2-oxopyrrolidin-3-yl)-4-(trifluoromethoxy)butan-2-yl)amino)pentan-2-yl)oxalamide] | < 0.05
8 | CC(C)C[C@H](NC(=O)c1cc2ccccc2[nH]1)C(=O)N[C@@H](C[C@@H]1CCNC1=O)C(=O)COc1c(F)c(F)cc(F)c1F [Compound 4, N-((S)-4-methyl-1-oxo-1-(((S)-3-oxo-1-((S)-2-oxopyrrolidin-3-yl)-4-(2,3,5,6-tetrafluorophenoxy)butan-2-yl)amino)pentan-2-yl)-1H-indole-2-carboxamide] | < 0.05
9 | CC(C)C[C@H](NC(=O)C(=O)NC1CCC1)C(=O)N[C@@H](C[C@@H]1CCNC1=O)C(=O)COc1c(F)c(F)cc(F)c1F [Compound 124, N1-cyclobutyl-N2-((S)-4-methyl-1-oxo-1-(((S)-3-oxo-1-((S)-2-oxopyrrolidin-3-yl)-4-(2,3,5,6-tetrafluorophenoxy)butan-2-yl)amino)pentan-2-yl)oxalamide] | 0.05 to 0.2

same assay, conditions: Severe acute respiratory syndrome coronavirus 2, HeLa-ACE2, 24 h, HeLa-ACE2 cells, SARS-CoV-2 infection, 24 h; given as bound; read-out: EC50, uM (Hela)

Row | Structure (SMILES) | EC50 [µM]
10 | CC(=O)N[C@H](C(=O)N1CC2(CC2)C[C@H]1C(=O)N[C@@H](C[C@@H]1CCNC1=O)C(=O)COC(F)(F)F)C(C)(C)C [Compound 436, (S)-5-((S)-2-acetamido-3,3-dimethylbutanoyl)-N-((S)-3-oxo-1-((S)-2-oxopyrrolidin-3-yl)-4-(trifluoromethoxy)butan-2-yl)-5-azaspiro[2.4]heptane-6-carboxamide] | > 1

same assay, conditions: Severe acute respiratory syndrome coronavirus 2, HeLa-ACE2, 24 h, HeLa-ACE2 cells, SARS-CoV-2 infection, 24 h; read-out: EC50, uM (Hela)

Row | Structure (SMILES) | EC50 [µM]
11 | CC(C)(C)C[C@H](NC(=O)C(=O)Nc1ccccc1F)C(=O)N[C@@H](C[C@@H]1CCNC1=O)C(=O)COC(F)(F)F [Compound 528, N1-((S)-4,4-dimethyl-1-oxo-1-(((S)-3-oxo-1-((S)-2-oxopyrrolidin-3-yl)-4-(trifluoromethoxy)butan-2-yl)amino)pentan-2-yl)-N2-(2-fluorophenyl)-oxalamide] | < 0.05
12 | Cn1ccc(NC(=O)C(=O)N2C[C@H]3[C@@H]([C@H]2C(=O)N[C@@H](C[C@@H]2CCNC2=O)C(=O)COC(F)(F)F)C3(C)C)n1 [Compound 535, (1R,2S,5S)-6,6-dimethyl-3-(2-((l-methyl-1H-pyrazol-3-yl)amino)-2-oxoacetyl)-N-((S)-3-oxo-1-((S)-2-oxopyrrolidin-3-yl)-4-(trifluoromethoxy)butan-2-yl)-3-azabicyclo-[3.1.0]hexane-2-carboxamide] | 0.05 to 0.2
13 | CC(C)(C#N)NC(=O)C(=O)N1C[C@@H]2CCC[C@@H]2[C@H]1C(=O)N[C@@H](C[C@@H]1CCNC1=O)C(=O)COC(F)(F)F [Compound 566, (1S,3aR,6aS)-2-(2-((2-cyanopropan-2-yl)amino)-2-oxoacetyl)-N-((S)-3-oxo-1-((S)-2-oxopyrrolidin-3-yl)-4-(trifluoromethoxy)butan-2-yl)octahydrocyclo-penta[c]pyrrole-1-carboxamide] | 0.05 to 0.2
14 | O=C(NCC(F)(F)F)C(=O)N1[C@@H]2CC[C@@H](C2)[C@H]1C(=O)N[C@@H](C[C@@H]1CCNC1=O)C(=O)COC(F)(F)F [Compound 542, (1R,3S,4S)-N-((S)-3-oxo-1-((S)-2-oxopyrrolidin-3-yl)-4-(trifluoromethoxy)butan-2-yl)-2-(2-oxo-2-((2,2,2-trifluoroethyl)-amino)acetyl)-2-azabicyclo[2.2.1]-heptane-3-carboxamide] | 0.05 to 0.2
15 | COc1cccc2cc(C(=O)N[C@@H](CC(C)C)C(=O)N[C@@H](C[C@@H]3CCNC3=O)C(=O)COC(F)(F)F)oc12 [Compound 466, 7-methoxy-N-((S)-4-methyl-1-oxo-1-(((S)-3-oxo-1-((S)-2-oxopyrrolidin-3-yl)-4-(trifluoromethoxy)butan-2-yl)amino)pentan-2-yl)benzofuran-2-carboxamide] | < 0.05
16 | CC(F)(F)C(F)(F)CC(=O)N1CC2(CC2)C[C@H]1C(=O)N[C@@H](C[C@@H]1CCNC1=O)C(=O)COC(F)(F)F [Compound 713, (S)-N-((S)-3-oxo-1-((S)-2-oxopyrrolidin-3-yl)-4-(trifluoromethoxy)butan-2-yl)-5-(3,3,4,4-tetrafluoropentanoyl)-5-azaspiro[2.4]heptane-6-carboxamide] | 0.05 to 0.2

same assay, conditions: Severe acute respiratory syndrome coronavirus 2, HeLa-ACE2, 24 h; read-out: EC50, uM (Hela)

Row | Structure (SMILES) | EC50 [µM]
17 | CC(C)(C)[C@H](NC(=O)C(F)(F)F)C(=O)N1C[C@H]2[C@@H]([C@H]1C(=O)N[C@@H](C[C@@H]1CCNC1=O)C(=O)COC(F)(F)F)C2(C)C [Compound 264, (1R,2S,5S)-3-((S)-3,3-dimethyl-2-(2,2,2-trifluoroacetamido)butanoyl)-6,6-dimethyl-N—((S)-3-oxo-1-((S)-2-oxopyrrolidin-3-yl)-4-(trifluoromethoxy)butan-2-yl)-3-azabicyclo[3.1.0]hexane-2-carboxamide] | < 0.05
